Measured values reported in PMC9267852, “Hepatic Expression of the Na^+-Taurocholate Cotransporting Polypeptide Is Independent from Genetic Variation” (International Journal of Molecular Sciences, 2022).
Changes are numbered by the printed parent chain.

Tests used:
Format in all cases: cell-based
[1] = biological target: T1, Na+-taurocholate cotransporting polypeptide (NTCP) (Homo sapiens, UniProt Q14973); experiment: inhibition of [3H]taurocholate uptake in NTCP-expressing HEK cells; remdesivir also taken up sodium-dependently (Km […])
T1 construct: gene SLC10A1
T1 sequence (Q14973 1-349): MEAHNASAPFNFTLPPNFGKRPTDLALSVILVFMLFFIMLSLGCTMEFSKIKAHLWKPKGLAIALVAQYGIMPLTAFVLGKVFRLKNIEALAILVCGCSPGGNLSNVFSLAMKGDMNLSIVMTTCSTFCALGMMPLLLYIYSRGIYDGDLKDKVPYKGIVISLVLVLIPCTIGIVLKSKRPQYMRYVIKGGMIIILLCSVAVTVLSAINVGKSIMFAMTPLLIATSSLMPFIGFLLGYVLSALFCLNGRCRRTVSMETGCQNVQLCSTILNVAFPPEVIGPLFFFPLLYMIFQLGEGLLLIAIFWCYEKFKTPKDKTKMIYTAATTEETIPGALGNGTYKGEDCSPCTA

[2] = biological target: T2, Na+-taurocholate cotransporting polypeptide (NTCP) (Homo sapiens, UniProt Q14973, R185C); experiment: inhibition of [3H]taurocholate uptake in NTCP-R185C-expressing HEK cells; sodium-dependent remdesivir uptake Km […]
T2 construct: gene SLC10A1; NTCP-p.R185C, stably expressed in HEK cells
T2 sequence (Q14973 1-349 R185C): T1 sequence (Q14973 1-349) with R185C

[3] = biological target: T3, Na+-taurocholate cotransporting polypeptide (NTCP) (Homo sapiens, UniProt Q14973, S213R); experiment: inhibition of [3H]taurocholate uptake in NTCP-S213R-expressing HEK cells; sodium-dependent remdesivir uptake Km […]
T3 construct: gene SLC10A1; NTCP-p.S213R, stably expressed in HEK cells
T3 sequence (Q14973 1-349 S213R): T1 sequence (Q14973 1-349) with S213R

CCC(CC)COC(=O)[C@H](C)N[P@](=O)(OC[C@H]1O[C@@](C#N)(c2ccc3c(N)ncnn23)[C@H](O)[C@@H]1O)Oc1ccccc1 [remdesivir]
IC50 [1]: 90.3 µM
IC50 [2]: 65 µM
IC50 [3]: 63.1 µM
